Assay results: patent US20060069076A1, “LXR/RXR-related methods and compositions” (priority 2004, published 2006)

Legend:
Format in all cases: cell-based, mouse
[1] = system: Aβ secretion from Neuro2a-APPSw cells; assay: Secreted Aβ from Neuro2a-APPSw cells after LXR activation (immunoprecipitation and immunoblotting)
Experimental: Neuro2a-APPSw cells were treated with LXR activators (TO or 22(R)-hydroxycholesterol) and in some cases also with RXR activator (9-cis-retinoic acid). Secreted Aβ (sAβ) was detected in medium by immunoprecipitation and immunoblotting. Cellular APP (cAPP) levels were measured by immunoblotting cell lysates. Western blots were scanned and quantified by ImageQuant. The bar graphs show the combined results (means±S.E.) from at least three independent experiments. A, cells were treated with increasing amounts of TO. B, cells were treated with mock transfection (control) or 1 μM TO, μM 9-cis-RA. C, cells were treated with mock transfection or 5 μM 22(R)-hydroxycholesterol (22(R)OHchol), 10 μM 9-cis-RA. #, p<0.05 compared with control. *, p<0.01 compared with control. […]
In experiments with LXR activation, the cells were first induced with activators for 24 h in DMEM, 5% lipoprotein-deficient serum. […] The immunoblots were developed using the ECL system (Pierce) scanned and quantified by ImageQuant (Molecular Dynamics). Quantitation of Aβ40 and Aβ42 was performed using a commercial Aβ enzyme-linked immunosorbent assay kit. […]
The cells were treated with increasing doses of the synthetic LXRα/β activator TO901317 (“TO”), and Aβ secretion into medium was measured by immunoprecipitation and Western blotting (FIG. 1A).

[2] = system: cellular cholesterol efflux, Neuro2a cells; assay: Cellular cholesterol efflux from ABCA1-expressing Neuro2a cells; details: expression of ABCA1 and addition of apoA-I (10 μg/ml, 6 h)
Experimental: The efflux experiments were performed as described (13). Briefly, Neuro2a cells were labeled with 1 μCi/ml [1.2-^3H(N)]-cholesterol (PerkinElmer Life Sciences) in DMEM containing 5 mM methyl-β-cyclodextrin:cholesterol at a molar ratio of 8:1 for 15 min at 37° C. After washing, the cells were equilibrated in DMEM, 0.2% bovine serum albumin for 30 min and then used for efflux experiments. […] The cells were lysed in 0.1 M sodium hydroxide, 0.1% SDS, and radioactivity was determined by liquid scintillation counting. Efflux was expressed as the percentage of radioactivity in the medium relative to the total radioactivity in cells and medium.
(§1) Cellular cholesterol mass was also measured.

[3] = system: Aβ generation from C99 in Neuro2a cells; assay: γ-Secretase cleavage of C99 Myc in Neuro2a cells transfected with ABCA1; details: Neuro2a cells transfected with C99 Myc and ABCA1; apoA-I added; data not shown
Experimental: FIGS. 5A-5B: ABCA1 overexpression decreases β-cleavage of APPSw and γ-cleavage of the 99-amino acid C-terminal fragment of APP. A, Neuro2a-APPSw cells were transfected with either empty vector or vector containing ABCA1 cDNA. The β-cleavage product C99 was detected by immunoprecipitation of cell lysates with antibody 4G8 followed by immunoblotting with 6E10. Cellular APP (cAPP) level was measured by immunoblotting cell lysates. The data are the means±S.E. for five separate experiments; *, p<0.01 compared with mock (mk) transfected. B, Neuro2a cells were transfected with vector containing either C99 Myc alone or C99 Myc with ABCA1. Aβ was detected as in FIG. 3. Cellular C99 was detected by immunoprecipitation with anti-Myc antibody followed by Western blot with 6E10. The data are shown for three separate experiments conducted in duplicate. #, p<0.05 compared with C99 transfected alone.
Both β and γ-cleavage of APP are required for the generation of Aβ. A series of experiments were carried out to determine which step is affected by ABCA1 overexpression. To measure β-cleavage, the β-secretase cleavage product was immunoprecipitated (C99 ) from cell lysates. There was an 85% decrease of cellular C99 in Neuro2a-APPSw cells transiently transfected with ABCA1 compared with mock transfected control (FIG. 5A). γ-Secretase mediates the final step in Aβ generation (1). […]

[4] = system: Aβ secretion from Neuro2a-APPSw cells; assay: Aβ secretion from ABCA1- or mock-transfected Neuro2a-APPSw cells with added apolipoproteins; details: apolipoprotein added for 6 h, compared with ABCA1 without apolipoprotein
Experimental: FIGS. 3A-3C: ABCA1 overexpression inhibits Aβ secretion.
FIG. 4: The effect of apoE isoforms on Aβ secretion.
as §1
Because apoE is a major apolipoprotein in the central nervous system and the apoE4 isoform is associated with increased risk of AD (19, 20), the effects of apoE on Aβ formation was also examined. […] Again, the major effect was attributable to ABCA1 expression alone.

[5] = system: efflux of cellular phospholipids, Neuro2a cells; assay: Cellular phospholipid efflux from ABCA1-expressing Neuro2a cells; details: expression of ABCA1 and addition of apoA-I

Molecule | reduction in secretion of Aβ into medium ([1]; 1 μM TO, 24 h induction, 4 h medium, immunoprecipitation and Western blotting (FIG. 1A)) [%] | amount of soluble form of APP (APPsα) in medium ([1]; administration of the LXR activator, data not shown) | increase in cellular cholesterol efflux [2] | further decrease in Aβ generation from C99 [3] | further change in Aβ on adding apolipoprotein to ABCA1-expressing cells [4] | increase in efflux of cellular phospholipids [5]
O=S(=O)(c1ccccc1)N(CC(F)(F)F)c1ccc(C(O)(C(F)(F)F)C(F)(F)F)cc1 [TO901317] | ~50 | not significantly changed |  |  |  | 
apoA-I: purified human apolipoprotein A-I, from Biodesign |  |  | 1.0±0.1 % of total cellular cholesterol | did not provide a further decrease | only a slight further decrease | 1.9 % of total cellular choline-labeled lipids
